Test results reported in patent publication US9856220B2 (AbbVie Deutschland GmbH & Co. KG, priority 2011, dated 2018).

Assays:
PDE10A = PDE10A (Homo sapiens (Human), UniProt Q9Y233); assay: Measurement of PDE activity (recombinant PDE, cAMP HTRF); type: biochemical; details: 20 nM cyclic nucleotide substrate, 60 minutes at 29 C
How it was run: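 Recombinant human PDE10A in 20 mM Tris-HCl pH 7.5, 10 mM MgCl2, 0.1% BSA with 20 nM cyclic nucleotide substrate; reaction 60 min at 29 C after compound preincubation with enzyme. Residual cAMP detected by HTRF (cAMP-d2/anti-cAMP cryptate); IC50 from inhibitor concentration versus PDE activity.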

[1] = Determination of the microsomal half-life / microsomal clearance, rat liver microsomes; type: in vitro ADME; details: 0.5 μM test substance, 0.25 mg of microsomal protein/ml, pH 7.4, 37° C.
Procedure: (§1) b) Determination of the Microsomal Half-Life:
(§2) The metabolic stability of the compounds of the invention was determined in the following assay.
(§3) The test substances were incubated in a concentration of 0.5 μM as follows:
(§4) 0.5 μM test substance are preincubated together with liver microsomes from different species (from rat, human or other species) (0.25 mg of microsomal protein/ml) in 0.05 M potassium phosphate buffer of pH 7.4 in microtiter plates at 37° C. for 5 min. The reaction is started by adding NADPH (1 mg/mL). After 0, 5, 10, 15, 20 and 30 min, 50 μl aliquots are removed, and the reaction is immediately stopped and cooled with the same volume of acetonitrile. The samples are frozen until analyzed. The remaining concentration of undegraded test substance is determined by MSMS. The half-life (T½) is determined from the gradient of the signal of test substance/unit time plot, it being possible to calculate the half-life of the test substance, assuming first order kinetics, from the decrease in the concentration of the compound with time. The microsomal clearance (mCl) is calculated from mCl=ln 2/T½/(content of microsomal protein in mg/ml)×1000 [ml/min/mg]

[2] = Determination of the microsomal half-life / microsomal clearance, human liver microsomes; type: in vitro ADME; details: 0.5 μM test substance, 0.25 mg of microsomal protein/ml, pH 7.4, 37° C.
Procedure: as §1, §2, §3, §4

Chain of PDE10A (Q9Y233 whole entry, species assumed): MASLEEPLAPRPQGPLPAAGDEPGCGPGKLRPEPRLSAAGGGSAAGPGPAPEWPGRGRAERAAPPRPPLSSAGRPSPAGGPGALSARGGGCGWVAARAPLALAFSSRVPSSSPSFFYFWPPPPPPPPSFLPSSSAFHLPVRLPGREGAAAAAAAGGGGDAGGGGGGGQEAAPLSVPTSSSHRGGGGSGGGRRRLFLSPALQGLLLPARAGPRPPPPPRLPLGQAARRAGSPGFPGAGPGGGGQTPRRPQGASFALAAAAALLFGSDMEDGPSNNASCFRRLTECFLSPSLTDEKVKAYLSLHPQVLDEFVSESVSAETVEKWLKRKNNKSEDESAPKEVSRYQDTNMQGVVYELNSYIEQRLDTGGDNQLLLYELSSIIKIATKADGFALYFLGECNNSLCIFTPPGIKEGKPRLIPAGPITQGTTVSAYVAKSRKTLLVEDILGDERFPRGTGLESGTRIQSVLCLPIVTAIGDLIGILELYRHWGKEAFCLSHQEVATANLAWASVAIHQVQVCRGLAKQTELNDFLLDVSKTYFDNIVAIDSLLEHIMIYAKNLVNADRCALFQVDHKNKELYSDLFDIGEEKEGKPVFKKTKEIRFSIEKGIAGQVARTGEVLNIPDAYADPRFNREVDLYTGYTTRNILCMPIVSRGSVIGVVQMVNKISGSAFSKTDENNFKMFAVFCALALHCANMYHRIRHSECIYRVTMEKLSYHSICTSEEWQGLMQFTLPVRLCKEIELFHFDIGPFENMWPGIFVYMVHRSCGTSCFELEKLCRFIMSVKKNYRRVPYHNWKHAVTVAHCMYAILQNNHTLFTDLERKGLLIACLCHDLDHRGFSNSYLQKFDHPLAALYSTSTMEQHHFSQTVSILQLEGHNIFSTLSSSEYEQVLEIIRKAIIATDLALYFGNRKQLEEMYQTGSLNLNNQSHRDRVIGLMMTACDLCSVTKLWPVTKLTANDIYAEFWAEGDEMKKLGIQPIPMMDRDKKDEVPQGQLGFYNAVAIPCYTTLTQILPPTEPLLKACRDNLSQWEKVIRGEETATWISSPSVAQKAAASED

Row | SMILES | IC50 (PDE10A) | Rat mCl [1] | Human mCl [2]
1 | CCC(CC)n1cc(C(=O)NC2CC(=O)c3sccc32)c2cc(OC)c(OC)cc2c1=O (stereo not drawn) [Example 195, 2-(1-Ethyl-propyl)-6,7-dimethoxy-1-oxo-1,2-dihydro-isoquinoline-4-carboxylic acid (6-oxo-5,6-dihydro-4H-cyclopenta[b]thiophen-4-yl)-amide] | 100 to 200 nM | + (100-220 μl min^−1 mg^−1) | + (100-220 μl min^−1 mg^−1)
2 | CCC(CC)n1cc(C(=O)NCc2nc(C)cs2)c2cc(OC)c(OC)cc2c1=O [Example 247, 6,7-Dimethoxy-N-((4-methylthiazol-2-yl)methyl)-1-oxo-2-(pentan-3-yl)-1,2-dihydroisoquinoline-4-carboxamide] | 100 to 200 nM | ++ (<100 μl min^−1 mg^−1) | + (100-220 μl min^−1 mg^−1)
3 | CCC(CC)n1cc(C(=O)NCc2ccccc2S(=O)(=O)N2CCN(C)CC2)c2cc(OC)c(OC)cc2c1=O [Example 219, 2-(1-Ethyl-propyl)-6,7-dimethoxy-1-oxo-1,2-dihydro-isoquinoline-4-carboxylic acid 2-(4-methyl-piperazine-1-sulfonyl)-benzylamide] | < 100 nM | + (100-220 μl min^−1 mg^−1) | + (100-220 μl min^−1 mg^−1)
4 | CCn1cc(C(=O)Nc2cccc(OC)c2)c2cc(OC)c(OC)cc2c1=O [Example 147, 2-Ethyl-6,7-dimethoxy-N-(3-methoxyphenyl)-1-oxo-1,2-dihydroisoquinoline-4-carboxamide] | 100 to 200 nM | ++ (<100 μl min^−1 mg^−1) | ++ (<100 μl min^−1 mg^−1)
5 | CCC(CC)n1cc(C(=O)NCc2occc2C)c2cc(OC)c(OC)cc2c1=O [Example 267, 6,7-Dimethoxy-N-((3-methylfuran-2-yl)methyl)-1-oxo-2-(pentan-3-yl)-1,2-dihydroisoquinoline-4-carboxamide] | 100 to 200 nM | ∘ (>220 μl min^−1 mg^−1) | + (100-220 μl min^−1 mg^−1)
6 | CCC(CC)n1cc(C(=O)NCc2ccccn2)c2cc(OC)c(OC)cc2c1=O [Example 263, 6,7-Dimethoxy-1-oxo-2-(pentan-3-yl)-N-(pyridin-2-ylmethyl)-1,2-dihydroisoquinoline-4-carboxamide] | 100 to 200 nM | ++ (<100 μl min^−1 mg^−1) | ++ (<100 μl min^−1 mg^−1)
7 | CCn1cc(C(=O)NC2CCc3ccc(F)cc32)c2cc(OC)c(OC)cc2c1=O (stereo not drawn) [Example 171, 2-Ethyl-N-(6-fluoro-2,3-dihydro-1H-inden-1-yl)-6,7-dimethoxy-1-oxo-1,2-dihydroisoquinoline-4-carboxamide] | 200 to 500 nM | ++ (<100 μl min^−1 mg^−1) | ++ (<100 μl min^−1 mg^−1)
8 | CCC(CC)n1cc(C(=O)NC2CCc3ccc(OC)cc32)c2cc(OC)c(OC)cc2c1=O (stereo not drawn) [Example 256, 6,7-Dimethoxy-N-(6-methoxy-2,3-dihydro-1H-inden-1-yl)-1-oxo-2-(pentan-3-yl)-1,2-dihydroisoquinoline-4-carboxamide] | < 100 nM | + (100-220 μl min^−1 mg^−1) | ∘ (>220 μl min^−1 mg^−1)
9 | CCn1cc(C(=O)NC2CCc3sccc32)c2cc(OC)c(OC)cc2c1=O (single isomer, unassigned; (-)) [Example 205, (−)-2-Ethyl-6,7-dimethoxy-1-oxo-1,2-dihydro-isoquinoline-4-carboxylic acid (5,6-dihydro-4H-cyclopenta[b]thiophen-4-yl)-amide] | 200 to 500 nM | ++ (<100 μl min^−1 mg^−1) | ++ (<100 μl min^−1 mg^−1)
10 | CCC(CC)n1cc(C(=O)NCc2csc(C)n2)c2cc(OC)c(OC)cc2c1=O [Example 248, 6,7-Dimethoxy-N-((2-methylthiazol-4-yl)methyl)-1-oxo-2-(pentan-3-yl)-1,2-dihydroisoquinoline-4-carboxamide] | 100 to 200 nM | ++ (<100 μl min^−1 mg^−1) | + (100-220 μl min^−1 mg^−1)
